Test results taken from patent US8163921B2, “Hepatitis C virus inhibitors” (Bristol-Myers Squibb Company, priority 2008, dated 2012).

Biological target: T1, HCV NS3/4A protease complex, H77 strain (Hepatitis C virus genotype 1a, UniProt P27958, C1454S/C1711G)
T1 construct: DNA encoding the recombinant HCV NS3/4A protease complex (amino acids 1027 to 1711) for these strains; inferred from Ni-NTA purification and the pET21b vector; made in house; host or cells: Escherichia coli BL21 (DE3)
Assay: FRET peptide assay to monitor HCV NS3/4A proteolytic activity (H77 strain)
Assay type: biochemical, HCV genotype 1a
Conditions: read-out: IC50, H177 strain
From the text: HCV NS3 protease complexes, derived from the BMS strain, H77 strain or J4L6S strain, were generated, as described below. These purified recombinant proteins were generated for use in a homogeneous assay (see below) to provide an indication of how effective compounds of the present disclosure would be in inhibiting HCV NS3 proteolytic activity.
Serum from an HCV-infected patient was obtained from Dr. T. Wright, San Francisco Hospital. An engineered full-length cDNA (compliment deoxyribonucleic acid) template of the HCV genome (BMS strain) was constructed from DNA fragments obtained by reverse transcription-PCR (RT-PCR) of serum RNA (ribonucleic acid) and using primers selected on the basis of homology between other genotype 1a strains. From the determination of the entire genome sequence, a genotype 1a was assigned to the HCV isolate according to the classification of Simmonds et al. (See P Simmonds, K A Rose, S Graham, S W Chan, F McOmish, B C Dow, E A Follett, P L Yap and H Marsden, J. Clin. Microbiol., 31(6), 1493-1503 (1993)). […]

T1 sequence (P27958 1027-1711 C1454S/C1711G, one chain of several): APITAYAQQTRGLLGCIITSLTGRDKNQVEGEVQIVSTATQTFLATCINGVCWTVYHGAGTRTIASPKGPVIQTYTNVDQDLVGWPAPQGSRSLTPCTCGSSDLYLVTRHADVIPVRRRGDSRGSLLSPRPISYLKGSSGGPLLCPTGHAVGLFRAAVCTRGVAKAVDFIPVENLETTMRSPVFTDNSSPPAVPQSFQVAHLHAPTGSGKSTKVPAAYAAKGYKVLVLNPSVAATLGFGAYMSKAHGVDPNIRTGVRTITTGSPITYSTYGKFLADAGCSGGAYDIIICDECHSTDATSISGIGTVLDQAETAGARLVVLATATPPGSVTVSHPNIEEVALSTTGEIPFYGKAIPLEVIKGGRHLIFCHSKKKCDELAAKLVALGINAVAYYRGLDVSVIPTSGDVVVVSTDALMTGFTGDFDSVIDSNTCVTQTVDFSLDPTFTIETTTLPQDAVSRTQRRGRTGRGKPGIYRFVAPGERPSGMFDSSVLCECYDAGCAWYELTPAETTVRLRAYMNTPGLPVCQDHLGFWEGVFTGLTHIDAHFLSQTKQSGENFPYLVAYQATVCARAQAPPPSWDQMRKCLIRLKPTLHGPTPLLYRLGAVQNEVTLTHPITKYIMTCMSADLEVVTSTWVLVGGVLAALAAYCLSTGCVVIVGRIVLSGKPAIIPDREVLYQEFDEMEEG

In the case of C=C[C@@H]1C[C@]1(NC(=O)[C@@H]1C[C@@H](Oc2ncc(OC)c3ccc(Cl)cc23)CN1C(=O)[C@@H](Nc1nc(-c2cccc(OC(F)(F)F)c2)cs1)C(C)(C)C)C(=O)NS(=O)(=O)C1CC1 [Example 68], the IC50 is reported as 1.9 nM.
